Data reported in US20230091297A1, “INHIBITORS OF HSP70 PROTEINS” (ARIZONA BOARD OF REGENTS ON BEHALF OF THE UNIVERSITY OF …, priority 2020, published 2023).
One block for each compound: values may come before it.

Tests used:
[1] = system: U251 glioblastoma cells; test: Cellular synergy, U251 growth rate (incucyte confluence); assay type: cell-based; conditions: 10 μM of 8 (FIG. 12)
[2] = molecular target: T1, HSPA8 (Homo sapiens, UniProt P11142); test: FP peptide binding assay, HSPA8 SBD; parameters: His6 (N, cleaved yes); made in house; host or cells: E. coli (Codon plus); conditions: 1 μM HSP70 SBD, 10 nM fluorescent peptide, read-out: A8 IC50
Target sequence in this assay (P11142 394-509 limits assumed): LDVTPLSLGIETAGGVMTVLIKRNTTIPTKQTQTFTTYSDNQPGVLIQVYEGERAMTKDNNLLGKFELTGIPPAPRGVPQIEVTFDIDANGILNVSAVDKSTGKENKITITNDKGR

[3] = molecular target: T2, HSPA1A (Homo sapiens, UniProt P0DMV8); test: FP peptide binding assay, HSPA1A SBD; parameters: His6 (N, cleaved yes); made in house; host or cells: E. coli (Codon plus); conditions: 1 μM HSP70 SBD, 10 nM fluorescent peptide, read-out: A1A IC50
Target sequence in this assay (P0DMV8 394-509 limits assumed): as the sequence (P11142 394-509 limits assumed) above, with T4A, I10L, V19A, T25S, T34I, K65R, T69S, S96T, V98T, E105A counted along it

[4] = molecular target: T3, HSPA2 (Homo sapiens, UniProt P54652); test: FP peptide binding assay, HSPA2 SBD; conditions: 1 μM HSP70 SBD, 10 nM fluorescent peptide, read-out: A2 IC50
T3 construct: His6 (N, cleaved yes); made in house; host or cells: E. coli (Codon plus)
T3 sequence (P54652 397-512 limits assumed): as the sequence (P11142 394-509 limits assumed) above, with V19P, P43S, G44S, I47V, E67D, S96T, V98A counted along it

[5] = system: 60 cancer cell lines; test: NCI-60 human tumor cell line screen; assay type: cell-based; conditions: fixed concentration of 10 μM (FIG. 8)
[6] = system: cancer cell lines; test: ZIP synergy with CB5083, growth inhibition; assay type: cell-based; conditions: combination of CB5083 and 8 (FIG. 9A)
[7] = molecular target: T4, HSPA9 (Homo sapiens, UniProt P38646); test: FP peptide binding assay, HSPA9 SBD; conditions: 1 μM HSP70 SBD, 10 nM fluorescent peptide, read-out: A9 IC50
T4 construct: His6 (N, cleaved yes); made in house; host or cells: E. coli (Codon plus)
T4 sequence (P38646 442-679 limits assumed): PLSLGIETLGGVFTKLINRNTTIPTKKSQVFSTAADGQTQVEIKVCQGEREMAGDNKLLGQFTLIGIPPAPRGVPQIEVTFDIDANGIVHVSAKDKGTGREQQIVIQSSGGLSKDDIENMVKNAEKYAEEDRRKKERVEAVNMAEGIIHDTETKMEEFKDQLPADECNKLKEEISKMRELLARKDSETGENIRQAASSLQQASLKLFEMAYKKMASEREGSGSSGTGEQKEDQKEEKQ

[8] = molecular target: T5, HSPA6 (Homo sapiens, UniProt P17066); test: FP peptide binding assay, HSPA6 SBD; conditions: 1 μM HSP70 SBD, 10 nM fluorescent peptide, read-out: A6 IC50
T5 construct: His6 (N, cleaved yes); made in house; host or cells: E. coli (Codon plus)
T5 sequence (P17066 396-511 limits assumed): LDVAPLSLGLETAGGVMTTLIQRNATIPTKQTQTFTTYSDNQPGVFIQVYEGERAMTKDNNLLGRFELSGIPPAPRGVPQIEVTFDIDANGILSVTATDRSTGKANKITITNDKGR

[9] = molecular target: T6, HSA (Homo sapiens, UniProt P02768); test: Serum binding assay (dansylamide and BD140 probes); assay type: in vitro ADME; conditions: 50 μM compound, 20 μM HSA
T6 construct: Each sample contained 20 μM HSA in PBS at pH 7.4; from tissue; host or cells: human serum
T6 sequence (P02768 25-609): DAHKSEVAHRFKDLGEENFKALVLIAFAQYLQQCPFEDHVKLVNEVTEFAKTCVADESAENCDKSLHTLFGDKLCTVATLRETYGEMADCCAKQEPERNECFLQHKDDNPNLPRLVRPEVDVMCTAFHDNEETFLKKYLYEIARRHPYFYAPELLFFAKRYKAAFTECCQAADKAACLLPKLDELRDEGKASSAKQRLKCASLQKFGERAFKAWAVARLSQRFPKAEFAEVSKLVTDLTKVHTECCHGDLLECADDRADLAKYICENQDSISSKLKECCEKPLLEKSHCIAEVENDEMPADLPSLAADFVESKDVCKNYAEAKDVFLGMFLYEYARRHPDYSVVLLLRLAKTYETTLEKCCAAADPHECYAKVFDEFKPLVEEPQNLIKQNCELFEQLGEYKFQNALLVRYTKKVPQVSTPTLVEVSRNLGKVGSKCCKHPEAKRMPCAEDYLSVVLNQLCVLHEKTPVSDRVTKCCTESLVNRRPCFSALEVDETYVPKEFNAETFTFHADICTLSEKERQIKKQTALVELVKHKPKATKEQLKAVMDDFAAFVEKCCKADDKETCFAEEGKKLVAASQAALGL

[10] = molecular target: HSPA5 (Homo sapiens, UniProt P11021); test: FP peptide binding assay, HSPA5 (HSPA5-NRLLLTG interaction); parameters: His6 (N, cleaved yes); made in house; host or cells: E. coli (Codon plus); conditions: FP, 1 μM HSP70 SBD, 10 nM fluorescent peptide; read-out: A5 IC50
HSPA5, sequence (P11021 419-632): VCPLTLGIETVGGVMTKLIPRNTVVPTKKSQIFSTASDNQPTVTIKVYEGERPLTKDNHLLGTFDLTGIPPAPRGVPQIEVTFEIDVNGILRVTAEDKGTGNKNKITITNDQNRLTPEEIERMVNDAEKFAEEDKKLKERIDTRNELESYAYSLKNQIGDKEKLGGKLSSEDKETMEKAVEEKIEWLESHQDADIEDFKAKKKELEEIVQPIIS

[11] = molecular target: T7, HspA5 substrate binding domain (Homo sapiens, UniProt P11021); test: 15N-HSQC NMR of HspA5 substrate binding domain; conditions: FIG. 11
T7 construct: HspA5SBD); His6-Smt3 (N, cleaved yes); made in house; host or cells: E. coli BL21-Codon+
T7 sequence (P11021 418-635): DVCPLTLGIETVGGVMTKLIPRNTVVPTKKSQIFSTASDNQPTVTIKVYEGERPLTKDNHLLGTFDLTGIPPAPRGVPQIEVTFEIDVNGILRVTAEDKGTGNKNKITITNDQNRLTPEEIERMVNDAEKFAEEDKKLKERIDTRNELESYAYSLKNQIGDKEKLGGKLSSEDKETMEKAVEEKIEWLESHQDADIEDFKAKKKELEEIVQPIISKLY

[12] = Solubility (comparison in words); assay type: physicochemical
[13] = system: canonical human HSP70 isoforms; test: FP binding of fluorescent peptides to HSP70 substrate binding domains; conditions: FIG. 4A
[14] = molecular target: T2, HSPA1A; conditions: read-out: NRLLLTG affinity for HSPA1A; reported in the literature; cited from earlier work
Target sequence in this assay (P0DMV8 whole entry): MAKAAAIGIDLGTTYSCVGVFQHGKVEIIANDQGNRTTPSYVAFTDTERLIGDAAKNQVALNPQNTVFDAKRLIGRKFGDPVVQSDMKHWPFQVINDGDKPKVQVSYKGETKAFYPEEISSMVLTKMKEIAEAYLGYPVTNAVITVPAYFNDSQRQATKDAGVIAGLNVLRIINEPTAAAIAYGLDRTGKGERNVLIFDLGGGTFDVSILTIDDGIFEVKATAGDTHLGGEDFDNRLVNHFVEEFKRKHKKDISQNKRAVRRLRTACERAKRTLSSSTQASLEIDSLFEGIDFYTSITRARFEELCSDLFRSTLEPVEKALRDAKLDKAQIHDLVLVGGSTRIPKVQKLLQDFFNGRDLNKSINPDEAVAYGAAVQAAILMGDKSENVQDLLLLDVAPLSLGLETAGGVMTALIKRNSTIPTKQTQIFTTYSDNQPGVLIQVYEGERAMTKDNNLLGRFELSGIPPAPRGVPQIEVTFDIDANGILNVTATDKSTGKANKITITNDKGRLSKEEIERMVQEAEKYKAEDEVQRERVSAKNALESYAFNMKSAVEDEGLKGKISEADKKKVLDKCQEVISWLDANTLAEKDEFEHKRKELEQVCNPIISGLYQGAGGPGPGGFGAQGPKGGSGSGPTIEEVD

[15] = molecular target: T1, HSPA8; conditions: read-out: NRLLLTG affinity for HSPA8; reported in the literature; cited from earlier work
Target sequence in this assay (P11142 whole entry): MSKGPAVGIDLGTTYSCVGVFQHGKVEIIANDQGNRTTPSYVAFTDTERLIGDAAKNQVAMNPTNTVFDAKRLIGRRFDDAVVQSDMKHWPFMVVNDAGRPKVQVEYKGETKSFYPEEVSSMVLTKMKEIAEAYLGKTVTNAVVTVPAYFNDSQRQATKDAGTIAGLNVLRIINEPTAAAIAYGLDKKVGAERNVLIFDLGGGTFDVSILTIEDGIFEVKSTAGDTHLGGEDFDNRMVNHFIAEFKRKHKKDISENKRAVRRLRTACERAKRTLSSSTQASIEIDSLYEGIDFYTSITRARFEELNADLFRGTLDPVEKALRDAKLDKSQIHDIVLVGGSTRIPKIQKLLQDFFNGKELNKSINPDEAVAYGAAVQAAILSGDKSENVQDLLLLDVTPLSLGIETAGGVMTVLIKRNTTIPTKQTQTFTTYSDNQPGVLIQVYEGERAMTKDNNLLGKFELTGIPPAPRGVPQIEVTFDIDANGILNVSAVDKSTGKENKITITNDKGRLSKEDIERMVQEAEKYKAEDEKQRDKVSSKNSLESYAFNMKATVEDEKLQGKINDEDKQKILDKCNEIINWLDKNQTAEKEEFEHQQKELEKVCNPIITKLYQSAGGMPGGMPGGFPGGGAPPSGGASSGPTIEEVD

Compound: CC(=O)c1ccc2[nH]c(C(=O)N[C@H](C(=O)Nc3nccs3)C(C)C)cc2c1 [Compound 24, (S)-5-acetyl-N-(3-methyl-1-oxo-1-(thiazol-2-ylamino)butan-2-yl)-1H-indole-2-carboxamide]
IC50 [10]: 0.43 ± 0.09 µM
binding to HSPA5 SBD by HSQC [11]: binds to HSPA5 in a manner that stabilizes its structure
solubility (comparison) [12]: much more soluble than compound 8

Compound: FITC-NR: Fluorescent peptide (FITC-NRLLLTG) used as FP probe
binding of fluorescent peptide to HSP70 isoforms [13]: only bound tightly to HSPA5 and HSPA9

Compound: NRLLLTG
Kd [14]: 10 µM
Kd [15]: 10 µM

Compound: P1: fluorescent peptide FAM-ALLLSAPRR that binds human HSP70 isoforms [Compound P1]
binding of fluorescent peptide to HSP70 isoforms [13]: bound with high affinity to all isoforms except HSPA1L

Second part, led by results:

IC50 [2]: 43.5 µM
IC50 [3]: > 50 µM
IC50 [4]: 13.9 µM
IC50 [7]: 4.3 µM
IC50 [8]: > 50 µM
Serum Binding [9]: <10%
Compound: CC(C)[C@H](NC(=O)c1cc2ccccc2[nH]1)C(=O)Nc1nccs1 [Compound 8]
growth inhibition with ER stress inducers MG132, thapsigargin, and CB5082 [1]: inhibits growth of these cells in a synergistic manner
growth inhibition in NCI-60 panel [5]: did not indicate significant decrease in growth rates
ZIP synergy with p97 inhibitor CB5083 [6]: growth inhibition was observed when both compounds are present a concentration where neither showed activity independently

IC50 [10]: > 50 µM
Compound: CC(C)[C@H](NC(=O)c1cccs1)C(=O)O [Compound 17, (thiophene-2-carbonyl)-L-valine]
